Data from patent publication US20110028447A1, “INDAZOLE DERIVATIVES” (Pfizer Inc., priority 2008, published 2011).
Like-named read-outs stand apart in the source and are kept apart here.

Experiments:
[1] = molecular target: T1, human CB1 receptor (Homo sapiens, UniProt P21554); test: Human CB1 receptor binding, [3H] CP-55,940 displacement on HEK cell membranes; set-up: expressed in transfected cells; host or cells: HEK cells, doxycycline-induced; membrane preparation
How it was run: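 Radioligand displacement: [3H] CP-55,940 at […] final, 1 μg membrane protein per well from HEK cells with tetracycline-inducible human CB1, 60 min at room temperature, pH 7.4 Tris/NaCl/MgCl2/EGTA/BSA buffer. 50 μM WIN-55,212-2 set nonspecific binding; bound label filtered, counted, and fitted for EC50 and Ki values.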

[2] = molecular target: T1, human CB1 receptor; test: [35S] GTPγS binding on membranes of CHO cells expressing the human CB1 receptor (agonism); assay type: biochemical; set-up: expressed in transfected cells; membrane preparation
Protocol: Membrane preparation: CHO cells expressing the human CB1 receptor were grown to 80% confluence in Ham's F-12 Nutrient Medium (Invitrogen) containing 10% fetal bovine serum (Invitrogen), 1% pen/strep (Invitogen), 1% Nonessential amino acids (Invitrogen) and 500 μg/ml G418 (Invitrogen). Cells were released from flasks using Cell Dissociation Buffer (Invitrogen). Cells were pelleted by centrifugation at 500×G for 5 minutes. Membranes were prepared by resuspending cells in ice cold Assay Buffer (25 mM Tris pH 7.4, 5 mM EDTA, 5 mM EGTA, Complete Protease Inhibitor (Roche)). Cells were lysed with 12 strokes of a dounce homogenizer. Unlysed cells were pelleted by centrifugation at 500×G for 5 minutes. Membranes were pelleted by centrifugation at 25,000×G for 30 minutes. Membranes were resuspended in TEE, dounced 12 strokes, and pelleted a second time at 25,000×G for 30 minutes. Membrane pellet was resuspended in 50 mM Tris pH 7.4, 100 mM NaCl, 3 mM MgCl2, 0.2 mM EGTA, Complete Protease Inhibitor (Roche). Protein concentration was determined using the Micro-BCA Protein Assay Kit (Pierce) using BSA as a standard. Membranes were frozen and stored at −80 degrees Celsius until use.
GTPγS Binding: 40 μl of test compound was incubated with 20 μl of [^35S] GTPγS (Perkin Elmer) (1250 Ci/millimole) and 140 μl of membrane homogenate (5 μg/well) in polypropylene 96-well plates (Corning). Final reaction conditions were 50 mM Tris pH 7.4, 100 mM NaCl, 3 mM MgCl2, 0.2 mM EGTA, 0.04% BSA. After incubation at 37 degrees Celsius for 45 minutes reactions were harvested by vacuum filtration through Unifilter GF/B-96 filters (Perkin Elmer) using a FilterMate Plate Harvester (Perkin Elmer). Filters were rinsed 4 times with ice cold 50 mM Tris pH 7.4, 3 mM MgCl2, 0.2 mM EGTA and dried at 50 degrees Celsius for at least 30 minutes. 40 μl of Microscint-20 (Perkin Elmer) was added per well, and plates were counted using a Top-Count Microplate Scintillation Counter (Perkin Elmer). Binding data were analyzed and EC50 values were calculated using Graph Pad Prism 4.0 Software.

[3] = GTPγS EC50, human CB1, CHO cell membranes
[4] = human CB1, CHO cell membranes, read-out: GTPγS EC50

T1 sequence (P21554 whole entry): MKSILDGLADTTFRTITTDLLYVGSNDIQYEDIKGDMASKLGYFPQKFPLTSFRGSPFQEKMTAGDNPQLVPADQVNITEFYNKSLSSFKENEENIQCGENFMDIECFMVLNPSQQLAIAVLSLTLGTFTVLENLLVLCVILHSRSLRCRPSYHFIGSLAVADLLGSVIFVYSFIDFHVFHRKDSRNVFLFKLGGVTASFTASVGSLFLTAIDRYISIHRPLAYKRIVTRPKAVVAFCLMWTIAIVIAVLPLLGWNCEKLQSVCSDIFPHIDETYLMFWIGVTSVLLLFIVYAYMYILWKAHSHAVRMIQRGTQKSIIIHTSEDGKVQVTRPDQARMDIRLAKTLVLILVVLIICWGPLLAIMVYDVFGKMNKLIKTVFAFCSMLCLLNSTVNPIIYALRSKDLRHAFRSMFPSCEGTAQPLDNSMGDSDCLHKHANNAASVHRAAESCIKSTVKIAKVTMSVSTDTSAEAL

SMILES	Ki ([1]; CB1 Ki) [µM]	Ki ([1]; read-out: CB1 Ki) [µM]	further results
CC(C)(C)[C@H](NC(=O)c1nn(Cc2ccc(F)cc2)c2ccccc12)C(N)=O [Example 1, N-[(1S)-1-(Aminocarbonyl)-2,2-dimethylpropyl]-1-(4-fluorobenzyl)-1H-indazole-3-carboxamide]	0.00036		EC50 [2, 3]: 0.00098 µM
CC(C)[C@H](NC(=O)c1nn(Cc2ccc(F)cc2)c2ccccc12)C(N)=O [Example 2, N-[(1S)-1-(aminocarbonyl)-2-methylpropyl]-1-(4-fluorobenzyl)-1H-indazole-3-carboxamide]	0.0009		EC50 [2, 3]: 0.0232 µM
NC(=O)[C@@H](NC(=O)c1nn(Cc2ccc(F)cc2)c2ccccc12)c1ccccc1 [Example 3, N-[(1S)-2-amino-2-oxo-1-phenylethyl]-1-(4-fluorobenzyl)-1H-indazole-3-carboxamide]	0.0499		EC50 [2, 3]: 0.298 µM
CC(C)(C)[C@H](NC(=O)c1nn(Cc2ccccn2)c2ccccc12)C(N)=O [Example 6, N-[(1S)-1-(aminocarbonyl)-2,2-dimethylpropyl]-1-(pyridin-2-ylmethyl)-1H-indazole-3-carboxamide]	0.0126		EC50 [2, 3]: 0.16 µM
CC(C)(C)[C@H](NC(=O)c1nn(Cc2ccccc2)c2ccc(Br)cc12)C(N)=O [Example 7, N-[(1S)-1-(aminocarbonyl)-2,2-dimethylpropyl]-1-benzyl-5-bromo-1H-indazole-3-carboxamide]	0.00204		EC50 [2, 3]: 0.0129 µM
CC(C)(C)[C@H](NC(=O)c1nn(Cc2ccccc2)c2ccc(-c3cccnc3)cc12)C(N)=O [Example 8, N-[(1S)-1-(Aminocarbonyl)-2,2-dimethylpropyl]-1-benzyl-5-pyridin-3-yl-1H-indazole-3-carboxamide]		0.118	EC50 [2, 4]: 0.209 µM
CC(C)(C)[C@H](NC(=O)c1nn(Cc2ccc(C#N)cc2)c2c(F)cccc12)C(=O)NCCO [Example 10, 1-(4-cyanobenzyl)-7-fluoro-N-[(1S)-1-{[(2-hydroxyethyl)amino]carbonyl}-2,2-dimethylpropyl]-1H-indazole-3-carboxamide]	0.00191		EC50 [2, 3]: 0.0375 µM
CC(C)(C)[C@H](NC(=O)c1nn(Cc2ccc(F)cc2)c2ccccc12)C(=O)NCc1nnc(C(N)=O)o1 [Example 11, N-{(1S)-1-[({[5-(aminocarbonyl)-1,3,4-oxadiazol-2-yl]methyl}amino)carbonyl]-2,2-dimethylpropyl}-1-(4-fluorobenzyl)-1H-indazole-3-carboxamide]		0.00029	EC50 [2, 4]: 0.00055 µM
CC(C)(C)[C@H](NC(=O)c1nn(Cc2ccccc2)c2ncccc12)C(N)=O [Example 12, N-[(1S)-1-(aminocarbonyl)-2,2-dimethylpropyl]-1-benzyl-1H-pyrazolo[3,4-b]pyridine-3-carboxamide]	0.0115		EC50 [2, 3]: 0.302 µM
CC(C)(C)[C@H](NC(=O)c1nn(Cc2ccccc2F)c2ccccc12)C(N)=O [Example 13]	0.00073		EC50 [2, 3]: 0.0119 µM
CC(C)C(NC(=O)c1nn(Cc2ccccc2F)c2ccccc12)C(N)=O (stereo not shown) [Example 17]	0.00469		EC50 [2, 3]: 0.149 µM
CC(C)(C)C(NC(=O)c1nn(Cc2cccc(F)c2)c2ccccc12)C(N)=O (stereo not shown) [Example 19]	0.00257		EC50 [2, 3]: 0.0205 µM
CC(C)C(NC(=O)c1nn(Cc2cccc(F)c2)c2ccccc12)C(N)=O (stereo not shown) [Example 20]	0.0511		EC50 [2, 3]: 0.216 µM
CC(C)(C)[C@H](NC(=O)c1nn(Cc2ccc(C#N)cc2)c2cc(F)ccc12)C(=O)N[C@H]1CNC(=O)C1 [Example 454]	> 0.4		
CC(C)(C)[C@H](NC(=O)c1nn(Cc2ccc(F)cc2)c2ccccc12)C(=O)N[C@H]1CNC(=O)C1 [Example 455]	0.0336		
CC(C)(C)[C@H](NC(=O)c1nn(Cc2ccc(C#N)cc2)c2ccccc12)C(=O)N[C@@H]1CNC(=O)C1 [Example 456]	0.0438		
CC(C)(C)[C@H](NC(=O)c1nn(Cc2ccc(C#N)cc2)c2cc(F)ccc12)C(=O)N[C@@H]1CNC(=O)C1 [Example 458]	0.12		
CC(C)(C)[C@H](NC(=O)c1nn(Cc2ccc(F)cc2)c2ccccc12)C(=O)NCc1[nH]nc2c1CCC2 [Example 460]		0.0246	
CC(C)(C)[C@H](NC(=O)c1nn(Cc2ccc(C#N)cc2)c2ccccc12)C(=O)NCc1nnc(C(=O)NCCO)o1 [Example 461]		> 0.4	
CC(C)(C)[C@H](NC(=O)c1nn(Cc2ccc(C#N)cc2)c2cc(F)ccc12)C(=O)NCc1nnc(C(=O)NCCO)o1 [Example 463]		0.274	
CC(C)(C)[C@H](NC(=O)c1nn(Cc2ccc(C#N)cc2)c2c(F)cccc12)C(=O)NCc1nnc(C(=O)NCCO)o1 [Example 464]		0.058	
CC(C)(C)[C@H](NC(=O)c1nn(Cc2ccc(C#N)cc2)c2ccccc12)C(=O)NCCN1CCNC(=O)C1 [Example 465]		> 0.4	
CC(C)(C)[C@H](NC(=O)c1nn(Cc2ccc(C#N)cc2F)c2ccccc12)C(=O)NCCN1CCNC(=O)C1 [Example 466]		> 0.4	

SMILES	Ki ([1]; CB1 Ki) [µM]	Ki ([1]; read-out: CB1 Ki) [µM]	further results
CC(C)(C)[C@H](NC(=O)c1nn(Cc2ccc(F)cc2)c2ccccc12)C(=O)NCCN1CCNC(=O)C1 [Example 467]		0.0538	
CC(C)(C)[C@H](NC(=O)c1nn(Cc2ccc(F)cc2F)c2ccccc12)C(=O)NCCN1CCNC(=O)C1 [Example 468]		0.0235	
CC(C)(C)[C@H](NC(=O)c1nn(Cc2ccc(F)c(F)c2)c2ccccc12)C(=O)NCCN1CCNC(=O)C1 [Example 469]		0.0807	
CC(C)(C)[C@H](NC(=O)c1nn(Cc2ccc(C#N)cc2F)c2ccccc12)C(=O)NCCC(N)=O [Example 471]	> 0.4		
CC(C)(C)[C@H](NC(=O)c1nn(Cc2ccc(F)cc2)c2c(F)cccc12)C(=O)NCCN1CCNC(=O)C1 [Example 474]		0.0412	
CC(C)(C)[C@H](NC(=O)c1nn(Cc2ccc(F)cc2)c2ccc(Cl)cc12)C(=O)NCCN1CCNC(=O)C1 [Example 475]		0.141	
CC(C)(C)[C@H](NC(=O)c1nn(Cc2ccc(F)cc2)c2ccc(Cl)cc12)C(=O)NCCC(N)=O [Example 477]	0.0283		
Cc1cc(O)nc(NCCNC(=O)[C@@H](NC(=O)c2nn(Cc3ccc(F)cc3)c3ccccc23)C(C)(C)C)n1 [Example 481]		0.0526	
Cc1cc(O)nc(CCNC(=O)[C@@H](NC(=O)c2nn(Cc3ccc(F)cc3)c3ccccc23)C(C)(C)C)n1 [Example 483]		0.084	
CCOC(=O)c1ccc(Cn2nc(C(=O)N[C@H](C(=O)NCCO)C(C)(C)C)c3ccccc32)c(F)c1 [Example 484]		> 0.4	
CC(C)(C)[C@H](NC(=O)c1nn(Cc2ccc(C#N)cc2)c2ccccc12)C(=O)NC[C@H]1C[C@@H]1CO [Example 485]	0.152		
CC(C)(C)[C@H](NC(=O)c1nn(Cc2ccc(C#N)cc2)c2c(F)cccc12)C(=O)NC[C@H]1C[C@@H]1CO [Example 486]	0.0439		
CC(C)(C)[C@H](NC(=O)c1nn(Cc2ccc(C#N)cc2)c2cc(F)ccc12)C(=O)NC[C@H]1C[C@@H]1CO [Example 487]	0.109		
CC(C)(C)[C@H](NC(=O)c1nn(Cc2ccc(C#N)cc2)c2ccccc12)C(=O)NC[C@H]1C[C@H]1CO [Example 489]	0.127		
CC(C)(C)[C@H](NC(=O)c1nn(Cc2ccc(C#N)cc2)c2cc(F)ccc12)C(=O)NC[C@H]1C[C@H]1CO [Example 491]	0.0885		
CC(C)(C)[C@H](NC(=O)c1nn(Cc2ccc(F)cc2)c2ccccc12)C(=O)NCC(=O)NCC(=O)O [Example 495]		0.13	
CC(C)(C)[C@H](NC(=O)c1nn(Cc2ccc(F)cc2)c2ccccc12)C(=O)NC[C@H](O)CN1CCCC1 [Example 503]		0.321	
CCN(CC)C[C@@H](O)CNC(=O)[C@@H](NC(=O)c1nn(Cc2ccc(F)cc2)c2ccccc12)C(C)(C)C [Example 505]		0.301	
CN(CCO)C[C@@H](O)CNC(=O)[C@@H](NC(=O)c1nn(Cc2ccc(F)cc2)c2ccccc12)C(C)(C)C [Example 507]		0.212	
Cn1ccc(NC(=O)[C@@H](NC(=O)c2nn(Cc3ccc(F)cc3)c3ccccc23)C(C)(C)C)n1 [Example 515]	0.0375		
CC(C)(C)[C@H](NC(=O)c1nn(Cc2ccc(F)cc2)c2ccccc12)C(=O)NCC(=O)NCCCO [Example 521]		> 0.4	
CC(C)(C)[C@H](NC(=O)c1nn(Cc2ccc(F)cc2)c2ccccc12)C(=O)NCC(=O)NC[C@H](O)CO [Example 522]		> 0.4	
